The results in this text go back to paper PMC1802613 (Nucleic Acids Research, 2006).

For the test, the target named is M-PMV NC-dUTPase (Mason-Pfizer monkey virus, UniProt P07570). As to the kind of experiment: isothermal titration calorimetry. The format is binding.
Chain of M-PMV NC-dUTPase (P07570 526-759): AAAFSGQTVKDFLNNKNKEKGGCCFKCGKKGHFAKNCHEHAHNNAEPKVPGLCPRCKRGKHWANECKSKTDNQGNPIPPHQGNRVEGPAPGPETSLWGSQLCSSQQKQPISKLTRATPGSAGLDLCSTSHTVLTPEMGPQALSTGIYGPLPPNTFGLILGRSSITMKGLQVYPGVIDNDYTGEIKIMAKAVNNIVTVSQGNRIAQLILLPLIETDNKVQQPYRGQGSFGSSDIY

As to `O=c1ccn([C@H]2C[C@H](O)[C@@H](COP(=O)(O)NP(=O)(O)OP(=O)(O)O)O2)c(=O)[nH]1` [α,β-imino dUTP], the Kd (in general, the equilibrium constant for the complex coming apart) came to 1200 ± 20 nM.
